According to ChEMBL document CHEMBL5096221, “Discovery of a Highly Potent and Orally Bioavailable STAT3 Dual Phosphorylation Inhibitor for Pancreatic Cancer Treatment” (J Med Chem, 2022):
Each block holds one molecule with its values, some of them ahead of it.

How the values were obtained:
[1] = Microsomal stability in dog liver microsomes assessed as compound remaining incubated for 60 mins in presence of NADPH by LC-MS/MS analysis; type: ADME, Canis lupus familiaris, Microsome; settings: read-out: Stability
[2] = Cmax in BALB/c mouse at 1 mg/kg,iv measured upto 24 hrs by LC-MS/MS analysis; type: ADME, organism-based; parameters: dose 1 mg/kg, time < 24 hrs, route iv; settings: in vivo
[3] = Volume of distribution at steady state in BALB/c mouse at 1 mg/kg,iv measured upto 24 hrs by LC-MS/MS analysis; type: ADME, organism-based; settings: in vivo, iv, 1 mg/kg, 24 h
[4] = Microsomal stability in dog liver microsomes assessed as intrinsic clearance incubated upto 40 mins in presence of NADPH by LC-MS/MS analysis; type: ADME, Canis lupus familiaris, Microsome; settings: read-out: CLH
[5] = Microsomal stability in human liver microsomes assessed as compound remaining incubated for 60 mins in presence of NADPH by LC-MS/MS analysis; type: ADME, Microsome; settings: read-out: Stability
[6] = Inhibition of ATP production in human BXPC-3 cells incubated for 20 to 24 hrs by ATP assay kit method; type: functional, cell-based
[7] = AUC (0-24hrs) in BALB/c mouse at 10 mg/kg,po measured upto 24 hrs by LC-MS/MS analysis; type: ADME, organism-based; parameters: dose 10 mg/kg, time < 24 hrs, route po; settings: in vivo
[8] = AUC (0-infinity) in BALB/c mouse at 1 mg/kg,iv measured upto 24 hrs by LC-MS/MS analysis; type: ADME, organism-based; parameters: dose 1 mg/kg, time < 24 hrs, route iv; settings: in vivo
[9] = Half life in BALB/c mouse at 10 mg/kg,po measured upto 24 hrs by LC-MS/MS analysis; type: ADME, organism-based; settings: in vivo
[10] = Half life in BALB/c mouse at 1 mg/kg,iv measured upto 24 hrs by LC-MS/MS analysis; type: ADME, organism-based; settings: in vivo
[11] = Microsomal stability in rat liver microsomes assessed as intrinsic clearance incubated upto 40 mins in presence of NADPH by LC-MS/MS analysis; type: ADME, Microsome; settings: read-out: CLH
[12] = Microsomal stability in human liver microsomes assessed as intrinsic clearance incubated upto 40 mins in presence of NADPH by LC-MS/MS analysis; type: ADME, Microsome; settings: read-out: CLH
[13] = Clearance at steady state in BALB/c mouse at 1 mg/kg,iv measured upto 24 hrs by LC-MS/MS analysis; type: ADME, organism-based; settings: in vivo, iv, 1 mg/kg, 24 h
[14] = Cmax in BALB/c mouse at 10 mg/kg,po measured upto 24 hrs by LC-MS/MS analysis; type: ADME, organism-based; parameters: time < 24 hrs, dose 10 mg/kg, route po; settings: in vivo
[15] = MRT (0 to last) in BALB/c mouse at 10 mg/kg,po measured upto 24 hrs by LC-MS/MS analysis; type: ADME, organism-based; settings: in vivo
[16] = target: Signal transducer and activator of transcription 3 (Homo sapiens, UniProt P40763); experiment: Inhibition of STAT3 in human HEK293T cells assessed as inhibition of IL-6 stimulated STAT3 phosphorylation by dual-luciferase reporter assay; type: cell-based
Chain of Signal transducer and activator of transcription 3 (P40763 whole entry): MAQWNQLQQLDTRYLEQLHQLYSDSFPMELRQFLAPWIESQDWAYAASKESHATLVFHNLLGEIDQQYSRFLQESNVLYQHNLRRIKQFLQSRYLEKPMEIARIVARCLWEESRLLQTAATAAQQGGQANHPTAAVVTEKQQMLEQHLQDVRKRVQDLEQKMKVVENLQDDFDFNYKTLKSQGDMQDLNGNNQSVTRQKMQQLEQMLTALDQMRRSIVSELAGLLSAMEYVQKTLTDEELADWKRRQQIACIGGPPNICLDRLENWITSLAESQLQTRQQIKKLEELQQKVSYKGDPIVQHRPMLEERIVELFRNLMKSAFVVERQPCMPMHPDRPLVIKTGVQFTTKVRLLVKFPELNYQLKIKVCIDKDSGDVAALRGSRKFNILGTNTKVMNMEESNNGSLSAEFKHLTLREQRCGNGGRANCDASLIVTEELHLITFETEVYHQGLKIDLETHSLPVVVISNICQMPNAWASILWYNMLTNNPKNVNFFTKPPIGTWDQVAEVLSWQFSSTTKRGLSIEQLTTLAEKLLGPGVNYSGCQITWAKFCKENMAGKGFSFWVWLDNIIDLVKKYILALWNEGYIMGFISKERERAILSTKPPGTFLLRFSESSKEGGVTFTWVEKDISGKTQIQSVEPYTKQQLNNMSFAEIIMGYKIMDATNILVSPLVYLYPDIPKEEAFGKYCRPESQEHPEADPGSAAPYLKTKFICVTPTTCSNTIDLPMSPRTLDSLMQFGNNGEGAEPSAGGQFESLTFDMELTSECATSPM

Cytochrome P450 2C19 = Cytochrome P450 2C19 (Homo sapiens, UniProt P33261); experiment: Inhibition of CYP2C19 in human liver microsomes; type: ADME, Microsome
Chain of Cytochrome P450 2C19 (P33261 whole entry): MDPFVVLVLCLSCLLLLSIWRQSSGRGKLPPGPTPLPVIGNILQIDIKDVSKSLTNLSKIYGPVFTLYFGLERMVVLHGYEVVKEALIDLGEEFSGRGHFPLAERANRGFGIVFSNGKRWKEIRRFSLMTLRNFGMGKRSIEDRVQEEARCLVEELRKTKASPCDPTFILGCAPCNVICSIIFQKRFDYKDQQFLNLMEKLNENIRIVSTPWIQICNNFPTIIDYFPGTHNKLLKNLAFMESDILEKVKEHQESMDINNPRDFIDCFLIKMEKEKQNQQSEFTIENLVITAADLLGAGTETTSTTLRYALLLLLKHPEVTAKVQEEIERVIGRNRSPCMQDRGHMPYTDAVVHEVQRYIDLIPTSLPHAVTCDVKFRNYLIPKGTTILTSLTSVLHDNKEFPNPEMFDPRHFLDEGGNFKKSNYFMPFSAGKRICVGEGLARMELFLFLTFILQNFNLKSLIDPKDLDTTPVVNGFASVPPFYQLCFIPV

[17] = Microsomal stability in rat liver microsomes assessed as half life incubated upto 40 mins in presence of NADPH by LC-MS/MS analysis; type: ADME, Microsome
[18] = Oral bioavailability in BALB/c mouse at 10 mg/kg,po measured upto 24 hrs by LC-MS/MS analysis; type: ADME, organism-based; settings: in vivo
[19] = Microsomal stability in dog liver microsomes assessed as half life incubated upto 40 mins in presence of NADPH by LC-MS/MS analysis; type: ADME, Canis lupus familiaris, Microsome
Cytochrome P450 3A4 = Cytochrome P450 3A4 (Homo sapiens, UniProt P08684); experiment: Inhibition of CYP3A4 in human liver microsomes using testosterone as substrate in presence of NADPH by HPLC analysis; type: ADME, Microsome
Chain of Cytochrome P450 3A4 (P08684 whole entry): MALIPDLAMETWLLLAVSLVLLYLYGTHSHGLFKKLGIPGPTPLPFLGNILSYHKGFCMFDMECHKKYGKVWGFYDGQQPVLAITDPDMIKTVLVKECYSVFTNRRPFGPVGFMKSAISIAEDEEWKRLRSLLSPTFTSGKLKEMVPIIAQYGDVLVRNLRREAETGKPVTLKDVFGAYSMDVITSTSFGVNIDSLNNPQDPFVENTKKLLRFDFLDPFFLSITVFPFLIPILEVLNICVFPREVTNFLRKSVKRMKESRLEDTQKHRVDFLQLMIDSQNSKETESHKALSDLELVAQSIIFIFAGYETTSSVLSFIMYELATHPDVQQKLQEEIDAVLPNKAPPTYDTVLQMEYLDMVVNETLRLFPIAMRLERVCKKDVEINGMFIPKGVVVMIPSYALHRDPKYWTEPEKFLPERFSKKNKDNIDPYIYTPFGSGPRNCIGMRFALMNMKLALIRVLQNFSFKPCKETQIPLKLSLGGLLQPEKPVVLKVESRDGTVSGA

Capan-2 = experiment: Anti-proliferative activity against human Capan-2 cells assessed as cell growth inhibition incubated for 72 hrs by MTS assay; type: functional, cell-based; settings: Capan-2, 72 h
BXPC-3 [20] = experiment: Anti-proliferative activity against human BXPC-3 cells assessed as cell growth inhibition incubated for 72 hrs by MTS assay; type: functional, cell-based; settings: BXPC-3, 72 h
[21] = MRT (0 to last) in BALB/c mouse at 1 mg/kg,iv measured upto 24 hrs by LC-MS/MS analysis; type: ADME, organism-based; settings: in vivo, iv, 1 mg/kg, 24 h
[22] = AUC (0-24hrs) in BALB/c mouse at 1 mg/kg,iv measured upto 24 hrs by LC-MS/MS analysis; type: ADME, organism-based; parameters: time < 24 hrs, dose 1 mg/kg, route iv; settings: in vivo
Cytochrome P450 2C9 = Cytochrome P450 2C9 (Homo sapiens, UniProt P11712); experiment: Inhibition of CYP2C9 in human liver microsomes using tolbutamide as substrate incubated for 60 mins in presence of NADPH by HPLC analysis; type: ADME, Microsome
Chain of Cytochrome P450 2C9 (P11712 whole entry): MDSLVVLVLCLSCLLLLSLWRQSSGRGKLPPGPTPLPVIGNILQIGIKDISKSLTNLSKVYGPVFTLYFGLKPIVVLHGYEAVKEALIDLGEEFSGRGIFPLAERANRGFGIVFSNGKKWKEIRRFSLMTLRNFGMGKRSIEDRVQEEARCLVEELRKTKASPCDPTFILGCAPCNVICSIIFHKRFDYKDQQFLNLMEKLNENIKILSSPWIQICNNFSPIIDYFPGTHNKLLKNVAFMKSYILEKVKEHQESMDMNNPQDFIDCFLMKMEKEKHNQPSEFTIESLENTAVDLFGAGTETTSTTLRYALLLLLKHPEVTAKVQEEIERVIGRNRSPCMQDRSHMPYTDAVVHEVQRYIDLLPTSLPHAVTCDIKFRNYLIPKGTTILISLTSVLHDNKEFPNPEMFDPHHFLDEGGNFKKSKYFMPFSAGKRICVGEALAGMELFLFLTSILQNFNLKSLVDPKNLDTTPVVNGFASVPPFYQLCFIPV

[23] = AUC (0-infinity) in BALB/c mouse at 10 mg/kg,po measured upto 24 hrs by LC-MS/MS analysis; type: ADME, organism-based; parameters: time < 24 hrs, dose 10 mg/kg, route po; settings: in vivo
[24] = Microsomal stability in rat liver microsomes assessed as compound remaining incubated for 60 mins in presence of NADPH by LC-MS/MS analysis; type: ADME, Microsome; settings: read-out: Stability
[25] = Microsomal stability in human liver microsomes assessed as half life incubated upto 40 mins in presence of NADPH by LC-MS/MS analysis; type: ADME, Microsome
Cytochrome P450 1A2 = target: T1, Cytochrome P450 1A2 (Homo sapiens, UniProt P05177); experiment: Inhibition of CYP1A2 in human liver microsomes using phenacetin as substrate incubated for 30 mins in presence of NADPH by HPLC analysis; type: ADME, Microsome
T1 sequence (P05177 whole entry): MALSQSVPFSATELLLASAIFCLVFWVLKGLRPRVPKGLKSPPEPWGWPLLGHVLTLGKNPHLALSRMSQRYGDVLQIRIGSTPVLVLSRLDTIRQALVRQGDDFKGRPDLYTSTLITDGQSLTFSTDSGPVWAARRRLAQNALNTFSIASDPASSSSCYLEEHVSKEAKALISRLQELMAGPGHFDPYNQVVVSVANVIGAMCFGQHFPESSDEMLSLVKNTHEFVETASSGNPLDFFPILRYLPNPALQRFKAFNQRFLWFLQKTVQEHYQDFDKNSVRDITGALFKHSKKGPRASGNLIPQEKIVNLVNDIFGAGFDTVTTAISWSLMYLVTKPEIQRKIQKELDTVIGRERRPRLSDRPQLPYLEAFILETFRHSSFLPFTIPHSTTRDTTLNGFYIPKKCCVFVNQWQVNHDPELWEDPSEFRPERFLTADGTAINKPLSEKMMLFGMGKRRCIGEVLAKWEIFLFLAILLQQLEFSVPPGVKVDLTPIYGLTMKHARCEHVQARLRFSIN

Cytochrome P450 2D6 = Cytochrome P450 2D6 (Homo sapiens, UniProt P10635); experiment: Inhibition of CYP2D6 in human liver microsomes using dextromethorphan as substrate incubated for 60 mins in presence of NADPH by HPLC analysis; type: ADME, Microsome
Chain of Cytochrome P450 2D6 (P10635 whole entry): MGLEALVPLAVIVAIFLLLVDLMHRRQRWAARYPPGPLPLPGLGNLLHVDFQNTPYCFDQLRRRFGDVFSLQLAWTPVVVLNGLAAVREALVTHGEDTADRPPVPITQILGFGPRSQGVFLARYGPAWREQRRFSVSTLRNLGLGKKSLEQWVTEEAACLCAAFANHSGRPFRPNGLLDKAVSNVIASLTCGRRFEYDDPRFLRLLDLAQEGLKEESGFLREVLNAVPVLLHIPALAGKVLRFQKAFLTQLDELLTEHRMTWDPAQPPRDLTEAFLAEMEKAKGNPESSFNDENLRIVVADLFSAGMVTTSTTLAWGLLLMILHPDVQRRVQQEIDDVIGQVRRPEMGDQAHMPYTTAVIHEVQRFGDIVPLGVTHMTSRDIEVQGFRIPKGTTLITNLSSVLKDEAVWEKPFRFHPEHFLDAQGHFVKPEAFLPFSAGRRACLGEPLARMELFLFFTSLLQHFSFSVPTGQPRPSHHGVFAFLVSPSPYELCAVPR

BXPC-3 [26] = experiment: Antitumor activity against human BXPC-3 cells xenografted BALB/c mouse model assessed as tumor growth inhibition at 30 mg/kg,po administrated once daily for 8 weeks; type: functional; settings: BXPC-3, 1344 h, read-out: TGI
[27] = Toxicity in BALB/c mouse xenografted with human BXPC-3 cells assessed as body weight change at 30 mg/kg,po administrated once daily for 8 weeks; type: organism-based; settings: in vivo, 1344 h
[28] = Toxicity in BALB/c mouse xenografted with human BXPC-3 cells assessed as effect on lung at 30 mg/kg,po administrated once daily for 8 weeks by H and E staining based microscopic analysis; type: organism-based; settings: in vivo, 1344 h
[29] = Toxicity in BALB/c mouse xenografted with human BXPC-3 cells assessed as effect on kidney at 30 mg/kg,po administrated once daily for 8 weeks by H and E staining based microscopic analysis; type: organism-based; settings: in vivo, 1344 h
[30] = Toxicity in BALB/c mouse xenografted with human BXPC-3 cells assessed as effect on liver at 30 mg/kg,po administrated once daily for 8 weeks by H and E staining based microscopic analysis; type: organism-based; settings: in vivo, 1344 h
[31] = Toxicity in BALB/c mouse xenografted with human BXPC-3 cells assessed as effect on spleen at 30 mg/kg,po administrated once daily for 8 weeks by H and E staining based microscopic analysis; type: organism-based; settings: in vivo, 1344 h
[32] = Toxicity in BALB/c mouse xenografted with human BXPC-3 cells assessed as effect on heart at 30 mg/kg,po administrated once daily for 8 weeks by H and E staining based microscopic analysis; type: organism-based; settings: in vivo, 1344 h

remaining at 1 h [1]: 50.9%
Cmax [2]: 2910 ng/mL
Vdss [3]: 3.7352 L/kg
microsomal CLint [4]: 21.5 µL/min/mg
remaining at 1 h [5]: 57.6%
IC50 [6]: 2.4 nM
AUC(0-t) at 24 h [7]: 10900 ng·h/mL
AUC(0-inf) [8]: 13800 ng·h/mL
half-life [9]: 13.9 h
half-life [10]: 17.7 h
microsomal CLint [11]: 18.6 µL/min/mg
microsomal CLint [12]: 18.9 µL/min/mg
CL [13]: 1.24 mL/min/kg
Cmax [14]: 669 ng/mL
MRT last at 24 h [15]: 15.6 h
IC50 [16]: 5.9 nM
IC50 (Cytochrome P450 2C19): > 50000 nM
half-life [17]: 1.24 h
bioavailability [18]: 12.5%
half-life [19]: 1.07 h
IC50 (Cytochrome P450 3A4): > 50000 nM
IC50 (BXPC-3 [20]): 1.4 nM
MRTlast [21]: 15 h
AUC(0-t) at 24 h [22]: 8680 ng·h/mL
IC50 (Cytochrome P450 2C9): > 50000 nM
AUC(0-inf) [23]: 12300 ng·h/mL
remaining at 1 h [24]: 55.4%
half-life [25]: 1.22 h
IC50 (Cytochrome P450 1A2): > 50000 nM
IC50 (Cytochrome P450 2D6): > 50000 nM
Structure (SMILES): Cn1c(C(=O)N2CCN(Cc3ccc(OCC(F)(F)F)cc3)CC2)cc2ccc(Oc3cnc(-c4nc(-c5ccc(F)cc5)no4)cn3)cc21
IC50 (Capan-2): 6.4 nM

IC50 [6]: 1960 nM
IC50 (BXPC-3 [20]): 5310 nM
Structure (SMILES): CC(=O)c1cc2c(o1)C(=O)c1ccccc1C2=O [NAPABUCASIN]
inhibition in vivo at 30 mg/kg (BXPC-3 [26]): 26.1%
Activity [27]: Non-Toxic
Activity [28]: Non-Toxic
Activity [29]: Non-Toxic
IC50 (Capan-2): 1590 nM
Activity [30]: Non-Toxic
Activity [31]: Non-Toxic
Activity [32]: Non-Toxic
